Results: the NIST ThermoML archive (doi:10.1016/j.tca.2010.02.008)

Assay: excess molar enthalpy (molar enthalpy of mixing); xn = mol fraction of the nth substance listed
Conditions: 773.15 K, 101 kPa, Liquid, Calvet calorimetry

[In] [indium] + [Sn]
Conditions | excess molar enthalpy [kcal/mol]
x2 = 0.1 | -0.0437
x2 = 0.1966 | -0.0894
x2 = 0.2981 | -0.104
x2 = 0.4041 | -0.0915
x2 = 0.5002 | -0.0791
x2 = 0.5005 | -0.0755
x2 = 0.5949 | -0.0719
x2 = 0.6901 | -0.0576
x2 = 0.7891 | -0.0394
x2 = 0.8975 | -0.0208
